Measured values as given in PubChem BioAssay AID1159562 (GlaxoSmithKline (GSK), 2015).
Calls of active or inactive are those of the source. No rule for the calls is given here.

Tested on: Trypanosoma brucei growth inhibition, luminescence
Test: antitrypanosomal activity against T. brucei – luminescence (AID 1159562);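 also: parasites grew with compound for 24 h before the luminescence read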

IC50 | Compound
> 40000 nM (inactive) | COc1cccc(C(=O)[C@H]2C[C@@H]2CN(Cc2cccnc2)Cc2cccnc2)c1
> 40000 nM (inactive) | CC1=C(C(=O)Nc2ccc(Cl)cc2)C(c2ccncc2)n2ncc(C(=O)Nc3ccccc3)c2N1 (centres undefined)
2500 nM | CCOc1ccc2nc(NC(=O)c3ccc([N+](=O)[O-])s3)sc2c1
400 nM | COc1ccc2ncc(Cl)c(CCN3CC[C@@H](NCc4cc5c(cn4)OCS5)[C@H](O)C3)c2n1
> 40000 nM (inactive) | O=C(Nc1cccc(F)c1)N1CCC(Oc2cccc(-c3cccnc3)c2)CC1
> 40000 nM (inactive) | COc1ccccc1C=CCN1C[C@H]2CCC[C@@H](C1)C2(O)c1cccnc1 (some centres undefined)
> 40000 nM (inactive) | O=C1CSC(c2cccnc2)N1c1ccc(Cl)cc1Cl (centres undefined)
20000 nM | CNc1nc(C)nc(N2CCc3cc(C(=O)NCc4ccc(-c5nccn5C)cc4Cl)ccc32)n1
20000 nM | Cc1cc(-c2cccc3ccccc23)nc2nc(N)nc(N)c12
200 nM | O=C(Nc1ccc(S(=O)(=O)N2CCCC2)cc1)c1ccc([N+](=O)[O-])s1
> 40000 nM (inactive) | O=C(CSc1nnc(-c2ccc3c(c2)OCO3)o1)N(Cc1ccco1)CC(F)(F)F
32000 nM | CN(C)Cc1ccc(N2CCC(NS(=O)(=O)c3ccc(Cl)cc3)CC2)cc1
> 40000 nM (inactive) | COc1ccc(OC)c2c(=O)c(Cc3ccccc3)c(C)[nH]c12
> 40000 nM (inactive) | CCCN1CCN(Cc2ccc(S(=O)(=O)Nc3cccc(C)c3)cc2)CC1
1000 nM | COc1ncc(-c2ccc3nccc(-c4ccncc4)c3c2)cc1NS(C)(=O)=O
250 nM | Cc1ccc(NC(=O)c2ccnc(N3CCCC3)c2)cc1-c1cc(C(N)=O)ccc1C
250 nM | COc1cccc2sc(CN(C)C(=O)C3CNCCN3c3ccc(F)cc3)c(C)c12 (centres undefined)
25000 nM | COc1ccc(C2CC(c3ccc(NS(C)(=O)=O)cc3)=NN2C(=O)c2cccs2)cc1OC (centres undefined)
> 40000 nM (inactive) | O=C(c1cccc(Nc2ncc(-c3ccc4c(c3)OCO4)cn2)c1)N1CCSC1
> 40000 nM (inactive) | N#Cc1ccc(S(=O)(=O)N2CCC3(CCN(c4ccccc4)C3=O)CC2)cc1
4000 nM | Cc1cc(C#N)c([N+](=O)[O-])cc1Br
32000 nM | COc1cc(C(C)C)c(S(C)(=O)=O)cc1C(=O)N1CCN(c2ccccc2Cl)CC1

IC50 | Compound
500 nM | O=C(CSc1nnc2ccc(-c3ccc(F)cc3)nn12)N1CCCCC1
1300 nM | CCCc1cc(C(=O)Nc2ncc(-c3cccc(Br)c3)n2C)n[nH]1
320 nM | Cc1[nH]n2c(=O)c3c(nc2c1-c1ccc(Cl)cc1)CCCC3
63 nM | Cc1cc(Nc2cc(C3CC3)[nH]n2)nc(N2CCC[C@H]2C(N)=O)n1
> 40000 nM (inactive) | Cc1cccc(NS(=O)(=O)c2cnc3sc(C)cn3c2=O)c1
> 40000 nM (inactive) | O=[N+]([O-])c1cccc(Nc2cncc(-c3ccccc3CO)c2)c1
630 nM | O=C(NNC(=O)c1ccccn1)c1ccc(-c2ccccc2)cc1
25000 nM | Cc1nc2c(-c3nc(-c4ccc(N)cc4)n[nH]3)cccn2c1C
630 nM | COc1ccc(NS(=O)(=O)c2cc(-c3cc(C)[nH]n3)ccc2C)cc1OC
63 nM | COc1ccc(OC)c(NC(=O)c2ccc([N+](=O)[O-])o2)c1
790 nM | CC(C)n1c(-c2nonc2N)nc2cccc(OCCN3CCCC3)c21
400 nM | O=C(Nc1cccc(S(=O)(=O)Nc2ccc(Br)cc2)c1)c1ccc([N+](=O)[O-])s1
32000 nM | CC(c1cc(Cl)cc(Cl)c1)N(C)c1ncc2c(N)nc(N)nc2n1 (centres undefined)
1000 nM | NCC(Cc1ccccc1)NC(=O)c1cnc(-c2c[nH]c3ncccc23)s1 (centres undefined)
100 nM | CC(C)c1cc(Nc2cc(Cc3ccccc3)nc(NC3CCC(O)CC3)n2)n[nH]1 (centres undefined)
> 40000 nM (inactive) | CCn1nccc1CN(C)C(=O)C=Cc1ccc(Cl)cc1
> 40000 nM (inactive) | COc1ccc(CN2CCCCC2c2nc(-c3cccnc3)no2)cc1 (centres undefined)
5000 nM | CCN(Cc1nc2ccc(C(=O)N3CCN(c4ncccn4)CC3)cc2[nH]1)C1CCCc2cccnc21 (centres undefined)
200 nM | NCc1ccc2c(Cl)cc(Cl)c(O)c2n1
25000 nM | COc1ccc([N+](=O)[O-])cc1NC(=O)c1cc(Cl)ccc1O
1000 nM | COCCn1cnc2cc(NC(=O)C3CCCCC3)cc(C(=O)N3CCc4sccc4C3)c21
16000 nM | Cn1nccc1-c1cc(OC(CN)c2ccccc2)cnc1-c1ccco1 (centres undefined)

IC50 | Compound
> 40000 nM (inactive) | CCCC(=O)N(Cc1ccccn1)c1nc2ccccc2s1
790 nM | CS(=O)(=O)c1ccc(Nc2nccc(Nc3n[nH]c4ccc(F)cc34)n2)c(F)c1
630 nM | NC(=O)c1cc(F)ccc1Nc1nc(NC2CCC(O)CC2)ncc1Cl (centres undefined)
13000 nM | CC(c1ccc2c(c1)CCCC2)N(C)c1ncc2c(N)nc(N)nc2n1 (centres undefined)
500 nM | COc1ccc2nccc(NC(=O)C3(OC)CCN(CC(O)c4ccc5c(c4)OCCO5)CC3)c2n1 (centres undefined)
25000 nM | COc1ccc(C(=O)Nc2cc(C(F)(F)F)ccc2N2CCOCC2)c(OC)c1
3200 nM | Nc1nc(-c2ccccn2)nc(-n2nc(-c3ccccc3)cc2N)n1
50 nM | CC(C)C[C@H](NC(=O)c1ccc(-c2ccccc2)o1)C(=O)NC1(C#N)CC1
400 nM | Cc1ccnc(NS(=O)(=O)c2ccc(NC(=O)c3ccc([N+](=O)[O-])s3)cc2)n1
160 nM | CC1CCCCN1C(=O)NCCc1coc(-c2ccc(F)cc2)n1 (centres undefined)
32000 nM | O=C(c1cccc(Cl)c1Cl)N1CCn2c1nc(-c1ccncc1)cc2=O
2000 nM | Cc1cc(C)cc(NS(=O)(=O)c2cc(-c3cc(C)[nH]n3)ccc2C)c1
16000 nM | Cc1cc(C)c(C#N)c(SCC(=O)c2ccc3c(c2)OCO3)n1
> 40000 nM (inactive) | COCc1cc(Nc2ccc(Cl)cc2)nc(-c2ccccn2)n1
25000 nM | CN(Cc1cc2ccccc2s1)c1ncc2c(N)nc(N)nc2n1
> 40000 nM (inactive) | O=C(NCc1ccc(-n2cccc2)cc1)c1nc(Cn2ccc([N+](=O)[O-])n2)no1
25000 nM | CCC(=O)Nc1ccc(C(=O)Nc2ccccc2-c2ccccc2)cc1
790 nM | CCOC(=O)c1cn[nH]c1S(=O)(=O)N1CCC1c1ccccc1 (centres undefined)
16000 nM | O=C(c1cc2cc(Cl)ccc2[nH]1)N1CCCCC1c1cccnc1 (centres undefined)
2000 nM | Nc1nc(-c2ccccn2)nc(N)c1Cc1c(F)cccc1Cl
25000 nM | Fc1ccc(Nc2nc(-c3ccccn3)cs2)cc1
> 40000 nM (inactive) | CC(C(=O)Nc1ccc(Br)cc1)N1CCN(c2ccc([N+](=O)[O-])cc2)CC1 (centres undefined)

IC50 | Compound
> 40000 nM (inactive) | CCC(c1ccc(F)cc1)n1cncc1-c1cnn(C)c1 (centres undefined)
25000 nM | CCCc1nc2nc(N)nc(N)c2cc1CC
790 nM | COc1ccc(C(=O)Nc2c(C)nn(COc3cccc(C(F)(F)F)c3)c2C)cc1
630 nM | CN(C)S(=O)(=O)c1cccc(C(=O)Nc2nc(-c3ccccn3)cs2)c1
7900 nM | CC(C)c1nn(-c2nc(N)nc(-c3ccccn3)n2)c(N)c1C1CCCCC1
6300 nM | CC(C)(C)Nc1nc(-c2ccccn2)nc2ccccc12
40000 nM | O=C(Nc1ncc([N+](=O)[O-])s1)C1CC1
200 nM | N#Cc1ccc(Br)cc1[N+](=O)[O-]
10000 nM | COc1cc(Cl)c(C)cc1NC(=O)c1ccc([N+](=O)[O-])s1
790 nM | O=C(Nc1nc2cc(Cl)ccc2o1)c1cccc(Cl)c1
25000 nM | CC1(C)CCC(=Cc2ccc(Cl)cc2)CC1(O)Cn1ccnc1 (centres undefined)
16000 nM | CCS(=O)(=O)Nc1ccc(C2=NN(C(=O)c3cccs3)C(c3ccccc3OC)C2)cc1 (centres undefined)
6300 nM | Cc1nn(-c2nc(N)nc(-c3ccccn3)n2)c(N)c1-c1ccccc1
> 40000 nM (inactive) | O=S(=O)(NCC(c1cccnc1)N1CCN(c2ccc(F)cc2)CC1)c1cccs1 (centres undefined)
100 nM | NC(N)=Nc1nc(-c2ccc(NC(N)=NCCN3CCCC3)cc2)cs1
25000 nM | c1ccc(Nc2nc3ccccc3[nH]2)nc1
> 40000 nM (inactive) | Cn1cncc1CN1CCC2(CC1)COC(Cc1ccccc1)C2 (centres undefined)
63 nM | Cc1cc(Nc2cc(C3CC3)[nH]n2)nc(N2CCCC2)n1
790 nM | CC(=O)Nc1ccc(-c2ccnc(Nc3cccc(C#N)c3)n2)cc1
40000 nM | O=C(CCc1ccc(-c2ccccc2)o1)N1CCN(c2ccc(O)cc2)CC1
> 40000 nM (inactive) | CN(C)c1ncc(-c2cncn2CCOc2ccc(Cl)cc2)cn1
630 nM | O=C(Nc1nc(-c2ccccn2)cs1)c1ccccc1-n1cnnn1

IC50 | Compound
7900 nM | Cc1ccc2onc(Nc3ccnc(Nc4cccc(S(C)(=O)=O)c4)n3)c2c1
> 40000 nM (inactive) | CCc1cccc(-n2nc(OCC(=O)NC3CCCC3)c3cccnc32)c1
1000 nM | COC(=O)c1ccc(-c2cnc3ccc(NCc4ccccn4)nn23)cc1
630 nM | O=C(NCCc1csc(-c2cccc(F)c2)n1)c1ccco1
200 nM | CN(C)Cc1cccc(Nc2nccc(-c3ccc(NCCN)c(C#N)c3)n2)c1
13000 nM | O=C(CCCNC(=O)c1ccc(Cl)cc1)Nc1nc(-c2ccccn2)cs1
1000 nM | O=C1COC(c2ccccc2)(c2ccccc2)CN1C1CCN(Cc2ccc(-n3ccnc3)cc2)CC1
> 40000 nM (inactive) | NC(=O)c1cc(NC(=O)c2ccccc2COc2ccccc2)ccc1Cl
400 nM | O=c1cc(NCCCNCc2cc(C(F)(F)F)cs2)[nH]c2ccccc12
160 nM | CC(=O)Nc1ccc(-c2csc(NC(=O)c3ccc([N+](=O)[O-])s3)n2)cc1
16000 nM | COCCn1c(-c2ccccc2)cnc1NCc1ccccc1OC
250 nM | Cc1[nH]nc(Nc2ccnc3[nH]ccc23)c1C
1600 nM | Cc1ccccc1CNc1cc(C2CC2)nc(-c2nccn2C)n1
1000 nM | O=c1cc(CSc2ccc(Cl)cc2)nc(-c2ccccn2)[nH]1
> 40000 nM (inactive) | C=CCn1nc([N+](=O)[O-])nc1Oc1ccc(Cl)cc1Cl
7900 nM | CCCn1c(NC(=O)CCn2cc(Br)cn2)nc2ccccc21
32000 nM | CN1CCN(c2nc(-c3ccc(Cl)cc3)c3c(N)n(C)nc3n2)CC1
400 nM | Cc1cc(Oc2cc(Cl)c(Cl)cc2Cl)n2ncnc2n1
1000 nM | O=C(Nc1ccccc1)Nc1nc(-c2ccccn2)cs1
1300 nM | N#Cc1cc(-c2ccnc(Nc3cccc(CN4CCOCC4)c3)n2)ccc1NCCN
100 nM | COc1cnc2ccc(=O)n(CCN3CCC(NC(=O)c4ccc(Cl)cc4)CC3)c2c1
